Assay results as given in US4371537A, “Sulfur-substituted phenoxypyridines having antiviral activity” (The Dow Chemical Company, priority 1981, dated 1983).
In brackets after ≈: the same amount, converted by molar mass.

How the values were obtained:
[1] = system: rhinovirus type 1A (RV-1A); experiment: Tissue culture testing, rhinovirus type 1A in HeLa cells; assay type: cell-based; settings: Enterovirus, 48 and 72 hours, NA = not active at the standard test conditions, read-out: RV-1A: lowest concentration of the compound necessary to cause a 50 percent reduction in cytopathic effect
Method: (§1) Monolayered HeLa cells in 16 millimeter (mm) tissue culture dishes were treated with 1 ml of culture medium (Eagles medium supplemented with fetal calf serum) containing subject compound at an appropriate concentration or containing no compound at all. Culture media such as those described herein are more fully described in standard texts, as for example, Kuchler's Biochemical Methods in Cell Culture and Virology, Dowden, Hutchinson and Ross, Inc., Stroudsberg, PA (1977). Following treatment, cells were challenged with 0.05 ml of rhinovirus type 1A (RV-1A), rhinovirus type 2 (RV-2) or Coxsackie A21 virus (Cox A21) in culture medium. Some of the compounds were also tested against rhinovirus type 5 (RV-5), rhinovirus type 8 (RV-8) or rhinovirus type 64 (RV-64). Cell controls received no viruses.
(§2) ^2 Lowest concentration of the compound (μg/ml) necessary to cause

Cox A21 = experiment: Single Oral Dose test in mice challenged IP with Cox A21; assay type: in vivo, Swiss male mice; settings: >3.84 significant (95% confidence level)
Method: In addition, some of the compounds were tested in animals utilizing the following procedure, hereinafter referred to as the "Single Oral Dose" test. Swiss male mice, 8-12 grams in weight were challenged intraperitoneally (IP) with 0.2 ml of a normally lethal dose, i.e., a virus dose sufficient to cause […].80-100% mortality in infected animals within 10 days of challenge of Cox A21, in phosphate buffered saline containing 1% heat inactivated fetal calf serum. Three hours later mice were treated orally (P.O.) with 0.2 ml of compound suspended in 0.5% hydroxypropyl methylcellulose (Methocel) or with 0.2 ml of 0.5% Methocel containing no compound. […] Mice were observed daily for 7-10 days post-challenge and deaths recorded. A modified Mantel-Haenzel combined chi-square procedure was used to determine significant difference between virus control and treated groups. Chi-square values greater than 3.84 are considered significant (95% confidence level) in this test.

[2] = Cytotoxicity in tissue culture testing (HeLa monolayers); assay type: cell-based; settings: human; HeLa cells; observed at 48 and 72 hours post-treatment; read-out: Cytotoxicity: concentration of the compound found to be toxic to the cell
Method: as §1
^1 Cytotoxicity figures represent the concentration of the compound, […]

[3] = system: Coxsackie A21 virus (Cox A21); experiment: Tissue culture testing, Coxsackie A21 virus in HeLa cells; assay type: cell-based; settings: 48 and 72 hours, NA = not active at the standard test conditions, read-out: Cox A21: lowest concentration of the compound necessary to cause a 50 percent reduction in cytopathic effect
Method: as §1, §2

rhinovirus type 2 (RV-2) = experiment: Tissue culture testing, rhinovirus type 2 in HeLa cells; assay type: cell-based; settings: Enterovirus, 48 and 72 hours, NA = not active at the standard test conditions, read-out: RV-2: lowest concentration of the compound necessary to cause a 50 percent reduction in cytopathic effect
Method: as §1, §2

Coxsackie A21 virus = experiment: Continuous Oral Feeding test in mice challenged IP with Coxsackie A21 virus; assay type: in vivo; settings: po, 0.06 % in diet, 240 h
Method: Some of the compounds were also tested in animals utilizing the following procedure, hereainafter referred to as the "Continuous Oral Feeding" test. Coxsackie A21 virus grown on HeLa cells was administered at a concentration that produces 80 to 100% deaths in mice weighing 8 to 12 grams within 10 days, when the mice are injected (IP) with 0.2 ml of virus preparation. Mice were placed on diets containing test compound dispersed in plain commercially available rodent mash chow at a concentration of 0.06% (weight percent) on day 0. On day 1 the mice were challenged with the virus preparation, 0.2 ml/mouse, (IP). Deaths in both control and experimental groups were recorded for the 10 days and the results analyzed by a chi-square (.chi.^2) test. Chi-square values greater than 3.84 indicate the compound is active (95% confidence level).

[4] = system: 20 different rhinoviruses; experiment: Summary of WI-38 tissue culture testing against 20 rhinoviruses; assay type: cell-based; settings: of 20 rhinoviruses
Method: The test compound was dissolved in an appropriate solvent (generally dimethyl sulfoxide) and incubated at 56° C. for at least 15 minutes and this solution was then used to prepare various test solutions having the desired concentration of test compound in preheated WI maintenance medium (49% Eagles, 49% medium 199, 2% fetal calf serum and antibiotics).
Triplicate cell culture tubes (WI-38 human embryonic lung cell culture tubes) were fed with 1 ml of medium containing the compound at specified concentrations and inoculated with 3-300 TCID50 (3-300 times the tissue culture infective dose 50, i.e., the dose required to infect 50% of the cell cultures tested). Simultaneous viral titrations were performed. The tissue cultures were supplemented with fresh medium when necessary (around 3-4 days) until viral titrations were completed.
The cell culture tubes were examined dialy for cytopathic effect. […] Comparisons were made at that time with the percentage of cell sheet destruction in tubes containing virus compound mixtures. Observed differences of 75% or more were graded "+", 74-50% as "±", and less than 50% as "-" inhibition.

[5] = system: rhinovirus type 64 (RV-64); experiment: Tissue culture testing, rhinovirus type 64 in HeLa cells; assay type: cell-based; settings: Enterovirus, 48 and 72 hours, NA = not active at the standard test conditions, read-out: RV-64: lowest concentration of the compound necessary to cause a 50 percent reduction in cytopathic effect
Method: as §1, §2

[6] = 600 mg/kg P.O. 3 h after IP challenge

| SMILES | EC50 [1] [µg/mL] | Single Oral Dose X^2 (chi-square, deaths vs virus control) (Cox A21; [6]) | MCC [2] [µg/mL] | EC50 [3] [µg/mL] | EC50 (rhinovirus type 2 (RV-2)) [µg/mL] | Continuous Oral Feeding X^2 (chi-square, deaths vs control) (Coxsackie A21 virus) | number of test rhinoviruses against which the compound was graded "+" ([4]; 25 μg/ml) [test rhinoviruses] | number of test rhinoviruses against which the compound was graded "±" ([4]; 25 μg/ml) | EC50 [5] [µg/mL] | number of test rhinoviruses against which the compound was graded "+" ([4]; 12.5 μg/ml) [test rhinoviruses] | number of test rhinoviruses against which the compound was graded "±" ([4]; 12.5 μg/ml) | Single Oral Dose X^2 (chi-square, deaths vs virus control) (Cox A21; 400 mg/kg P.O. 3 h after IP challenge) |
| --- | --- | --- | --- | --- | --- | --- | --- | --- | --- | --- | --- | --- |
| CS(=O)(=O)c1cccc(Oc2ccc(C(=O)c3ccccc3)cc2)n1 [Example 68] | 6.25 (≈ 17.7 µM) | 0.362 | 12.5 | 6.25 (≈ 17.7 µM) | 6.25 (≈ 17.7 µM) | 0.680 |  |  |  |  |  |  |
| O=S(=O)(Cc1ccccc1)c1ccc(Oc2ccc(Br)cc2)nc1 [Example 64, 2-(4-bromophenoxy)-5-((phenylmethyl)sulfonyl)pyridine] |  | 0.483 | ≥ 100 |  | 50 (≈ 124 µM) | 2.985 |  |  |  |  |  |  |
| CCS(=O)(=O)c1ccc(Oc2ccc(Cl)c(Cl)c2)nc1 [2-(3,4-dichlorophenoxy)-5-(ethylsulfonyl)pyridine] |  |  |  |  |  |  | 14 | 3 |  |  |  |  |
| CC(C)S(=O)(=O)c1ccc(Oc2ccc(Br)cc2)nc1 [Example 50, 2-(4-bromophenoxy)-5-((1-methylethyl)sulfonyl)pyridine] | 1.25 (≈ 3.51 µM) | 10.040 | 12.5 | 1.25 (≈ 3.51 µM) | 1.25 (≈ 3.51 µM) | 1.243 |  |  | 2.5 (≈ 7.02 µM) |  |  |  |
| CS(=O)(=O)c1ccc(Oc2cccc(C#N)c2)nc1 [Example 36, 3-((5-(methylsulfonyl)-2-pyridinyl)oxy)benzonitrile] | 12.5 (≈ 45.6 µM) | 2.20 | > 100 | 50 (≈ 182 µM) | 50 (≈ 182 µM) | 3.447 |  |  | 50 (≈ 182 µM) |  |  |  |
| CS(=O)(=O)c1ccc(Oc2ccc(C(=O)c3ccccc3)cc2)nc1 [(4-((5-(methylsulfonyl)-2-pyridinyl)oxy)phenyl)phenylmethanone] |  |  |  |  |  |  | 13 | 3 |  |  |  |  |
| CS(=O)(=O)c1ccc(Oc2ccc(Cl)c(Cl)c2)nc1 [2-(3,4-dichlorophenoxy)-5-(methylsulfonyl)pyridine] |  |  |  |  |  |  | 14 | 2 |  |  |  |  |
| CCCCCCS(=O)(=O)c1ccc(Oc2ccc(C(=O)c3ccccc3)cc2)nc1 [Example 55, (4-((5-(n-hexylsulfonyl)-2-pyridinyl)oxy)phenyl)phenylmethanone] | 3.12 (≈ 7.38 µM) | 0.190 | 12.5 | 3.12 (≈ 7.38 µM) | 12.5 (≈ 29.5 µM) |  |  |  |  |  |  |  |
| O=S(=O)(c1ccccc1)c1ccc(Oc2ccc(Cl)c(Cl)c2)nc1 [Example 60, 2-(3,4-dichlorophenoxy)-5-(phenylsulfonyl)pyridine] | 5 (≈ 13.1 µM) | 0.839 | ≥ 100 | 10 (≈ 26.3 µM) | 10 (≈ 26.3 µM) | 0.970 |  |  |  |  |  |  |
| CS(=O)(=O)c1ccc(Oc2cccc(Br)c2)nc1 [Example 35, 2-(3-bromophenoxy)-5-(methylsulfonyl)pyridine] | < 6.25 | 1.604 | > 100 | 50 (≈ 152 µM) | 12.5 (≈ 38.1 µM) | 0.197 |  |  | 6.25 (≈ 19 µM) |  |  |  |
| O=S(=O)(c1ccccc1)c1ccc(Oc2ccc(Br)cc2)nc1 [Example 61, 2-(4-bromophenoxy)-5-(phenylsulfonyl)pyridine] | 10 (≈ 25.6 µM) | 4.401 | 20 | 5 (≈ 12.8 µM) | 10 (≈ 25.6 µM) | 3.328 |  |  |  |  |  |  |
| CS(=O)(=O)c1cccc(Oc2ccc(Cc3ccccc3)cc2)n1 [Example 69, 2-(methylsulfonyl)-6-(4-(phenylmethyl)phenoxy)pyridine] | 0.625 (≈ 1.84 µM) | 3.510 | 5 |  | 2.5 (≈ 7.37 µM) | 0.776 |  |  |  |  |  |  |
| CC[S+]([O-])c1ccc(Oc2ccc(Cl)c(Cl)c2)nc1 (centres unmarked) [Example 46, 2-(3,4-dichlorophenoxy)-5-(ethylsulfinyl)pyridine] | < 3.12 |  | 12.5 | 12.5 (≈ 39.5 µM) | < 3.12 |  |  |  | 5 (≈ 15.8 µM) |  |  |  |
| O=S(=O)(Cc1ccccc1)c1ccc(Oc2ccc(Cl)c(Cl)c2)nc1 [Example 63, 2-(3,4-dichlorophenoxy)-5-((phenylmethyl)sulfonyl)pyridine] | 5 (≈ 12.7 µM) | 0.733 | 25 | 10 (≈ 25.4 µM) | 10 (≈ 25.4 µM) | 4.106 |  |  |  |  |  |  |
| CCSc1ccc(Oc2ccc(Cl)c(Cl)c2)nc1 [Example 45, 2-(3,4-dichlorophenoxy)-5-(ethylthio)pyridine] | 2.5 (≈ 8.33 µM) |  | 12.5 | 3.12 (≈ 10.4 µM) | 2.5 (≈ 8.33 µM) |  |  |  | 5 (≈ 16.7 µM) |  |  |  |
| CS(=O)(=O)c1ccc(Oc2ccc(SC(F)(F)F)cc2)nc1 [Example 27, 5-(methylsulfonyl)-2-(4-((trifluoromethyl)thio)phenoxy)pyridine] | 12.5 (≈ 35.8 µM) | 39.700 | ≥ 100 | < 6.25 | < 6.25 | 29.753 |  |  | < 6.25 |  |  |  |
| CS(=O)(=O)c1ccc(Oc2ccc(Cl)cc2)nc1 [2-(4-chlorophenoxy)-5-(methylsulfonyl)pyridine] |  |  |  |  |  |  |  |  |  | 13 | 3 |  |
| C[S+]([O-])c1ccc(Oc2ccc(Cl)c(Cl)c2)nc1 (centres unmarked) [Example 39, 2-(3,4-dichlorophenoxy)-5-(methylsulfinyl)pyridine] | 0.625 (≈ 2.07 µM) |  | 25 | 25 (≈ 82.7 µM) | 1.25 (≈ 4.14 µM) |  |  |  | 1.25 (≈ 4.14 µM) |  |  |  |
| CCS(=O)(=O)c1ccc(Oc2ccc(Cl)cc2)nc1 [2-(4-chlorophenoxy)-5-(ethylsulfonyl)pyridine] |  |  |  |  |  |  |  |  |  | 13 | 4 |  |
| CC(C)S(=O)(=O)c1ccc(Oc2ccc(Cl)c(Cl)c2)nc1 [Example 49, 2-(3,4-dichlorophenoxy)-5-((1-methylethyl)sulfonyl)pyridine] | < 0.312 |  | 12.5 | 0.625 (≈ 1.81 µM) | 0.625 (≈ 1.81 µM) | 3.851 |  |  | 0.625 (≈ 1.81 µM) |  |  | 0.004 |
